{"source": "PubChem BioAssay AID1259407", "about": "(Chemical Carcinogenesis Research Information System (CCRIS), 2018)", "test_system": "CCRIS mutagenicity, Ames/micronucleus/aberration tests", "assay": "CCRIS mutagenicity studies", "key": {"[1]": {"details": "Test System: AMES SALMONELLA TYPHIMURIUM, Strain/Indicator: TA98, Metabolic Activation: NONE, Method: STANDARD PLATE"}, "[2]": {"details": "Test System: AMES SALMONELLA TYPHIMURIUM, Strain/Indicator: TA98, Metabolic Activation: RAT, LIVER, S-9, AROCLOR 1254, Method: STANDARD PLATE"}, "[3]": {"details": "Test System: AMES SALMONELLA TYPHIMURIUM, Strain/Indicator: TA100, Metabolic Activation: RAT, LIVER, S-9, AROCLOR 1254, Method: STANDARD PLATE"}, "[4]": {"details": "Test System: AMES SALMONELLA TYPHIMURIUM, Strain/Indicator: TA1537, Metabolic Activation: NONE, Method: STANDARD PLATE"}}, "note": "Calls of active or inactive are those of the source. No rule for the calls is given here.", "data": [{"compound": "C=C(C)C(=O)OCCCC", "values": [{"measurement": "mutagenic call", "setting": "Test System: AMES SALMONELLA TYPHIMURIUM, Strain/Indicator: TA98, Metabolic Activation: HAMSTER, LIVER, S-9, AROCLOR 1254 (10%), Method: PREINCUBATION", "result": "inactive; negative"}, {"measurement": "mutagenic call", "setting": "Test System: AMES SALMONELLA TYPHIMURIUM, Strain/Indicator: TA98, Metabolic Activation: NONE, Method: PREINCUBATION", "result": "inactive; negative"}, {"measurement": "mutagenic call", "setting": "[1]", "result": "inactive; negative"}, {"measurement": "mutagenic call", "setting": "Test System: AMES SALMONELLA TYPHIMURIUM, Strain/Indicator: TA98, Metabolic Activation: RAT LIVER S-9, PHENOBARBITAL AND BETA-NAPHTHOFLAVONE, Method: PREINCUBATION", "result": "inactive; negative"}, {"measurement": "mutagenic call", "setting": "Test System: AMES SALMONELLA TYPHIMURIUM, Strain/Indicator: TA98, Metabolic Activation: RAT, LIVER, S-9, AROCLOR 1254 (10%), Method: PREINCUBATION", "result": "inactive; negative"}, {"measurement": "mutagenic call", "setting": "[2]", "result": "inactive; negative"}, {"measurement": "mutagenic call", "setting": "Test System: AMES SALMONELLA TYPHIMURIUM, Strain/Indicator: TA98, Metabolic Activation: RAT, LIVER, S-9, SODIUM PHENOBARBITAL, Method: STANDARD PLATE", "result": "inactive; negative"}, {"measurement": "mutagenic call", "setting": "Test System: AMES SALMONELLA TYPHIMURIUM, Strain/Indicator: TA100, Metabolic Activation: HAMSTER, LIVER, S-9, AROCLOR 1254 (10%), Method: PREINCUBATION", "result": "inactive; negative"}, {"measurement": "mutagenic call", "setting": "Test System: AMES SALMONELLA TYPHIMURIUM, Strain/Indicator: TA100, Metabolic Activation: NONE, Method: PREINCUBATION", "result": "inactive; negative"}, {"measurement": "mutagenic call", "setting": "Test System: AMES SALMONELLA TYPHIMURIUM, Strain/Indicator: TA100, Metabolic Activation: NONE, Method: STANDARD PLATE", "result": "inactive; negative"}, {"measurement": "mutagenic call", "setting": "Test System: AMES SALMONELLA TYPHIMURIUM, Strain/Indicator: TA100, Metabolic Activation: RAT LIVER S-9, PHENOBARBITAL AND BETA-NAPHTHOFLAVONE, Method: PREINCUBATION", "result": "inactive; negative"}, {"measurement": "mutagenic call", "setting": "Test System: AMES SALMONELLA TYPHIMURIUM, Strain/Indicator: TA100, Metabolic Activation: RAT, LIVER, S-9, AROCLOR 1254 (10%), Method: PREINCUBATION", "result": "inactive; negative"}, {"measurement": "mutagenic call", "setting": "[3]", "result": "inactive; negative"}, {"measurement": "mutagenic call", "setting": "Test System: AMES SALMONELLA TYPHIMURIUM, Strain/Indicator: TA100, Metabolic Activation: RAT, LIVER, S-9, SODIUM PHENOBARBITAL, Method: STANDARD PLATE", "result": "inactive; negative"}, {"measurement": "mutagenic call", "setting": "Test System: AMES SALMONELLA TYPHIMURIUM, Strain/Indicator: TA1535, Metabolic Activation: HAMSTER, LIVER, S-9, AROCLOR 1254 (10%), Method: PREINCUBATION", "result": "inactive; negative"}, {"measurement": "mutagenic call", "setting": "Test System: AMES SALMONELLA TYPHIMURIUM, Strain/Indicator: TA1535, Metabolic Activation: NONE, Method: PREINCUBATION", "result": "inactive; negative"}, {"measurement": "mutagenic call", "setting": "Test System: AMES SALMONELLA TYPHIMURIUM, Strain/Indicator: TA1535, Metabolic Activation: NONE, Method: STANDARD PLATE", "result": "inactive; negative"}, {"measurement": "mutagenic call", "setting": "Test System: AMES SALMONELLA TYPHIMURIUM, Strain/Indicator: TA1535, Metabolic Activation: RAT LIVER S-9, PHENOBARBITAL AND BETA-NAPHTHOFLAVONE, Method: PREINCUBATION", "result": "inactive; negative"}, {"measurement": "mutagenic call", "setting": "Test System: AMES SALMONELLA TYPHIMURIUM, Strain/Indicator: TA1535, Metabolic Activation: RAT, LIVER, S-9, AROCLOR 1254 (10%), Method: PREINCUBATION", "result": "inactive; negative"}, {"measurement": "mutagenic call", "setting": "Test System: AMES SALMONELLA TYPHIMURIUM, Strain/Indicator: TA1535, Metabolic Activation: RAT, LIVER, S-9, AROCLOR 1254, Method: STANDARD PLATE", "result": "inactive; negative"}, {"measurement": "mutagenic call", "setting": "Test System: AMES SALMONELLA TYPHIMURIUM, Strain/Indicator: TA1535, Metabolic Activation: RAT, LIVER, S-9, SODIUM PHENOBARBITAL, Method: STANDARD PLATE", "result": "inactive; negative"}, {"measurement": "mutagenic call", "setting": "Test System: AMES SALMONELLA TYPHIMURIUM, Strain/Indicator: TA1537, Metabolic Activation: HAMSTER, LIVER, S-9, AROCLOR 1254 (10%), Method: PREINCUBATION", "result": "inactive; negative"}, {"measurement": "mutagenic call", "setting": "Test System: AMES SALMONELLA TYPHIMURIUM, Strain/Indicator: TA1537, Metabolic Activation: NONE, Method: PREINCUBATION", "result": "inactive; negative"}, {"measurement": "mutagenic call", "setting": "[4]", "result": "inactive; negative"}, {"measurement": "mutagenic call", "setting": "Test System: AMES SALMONELLA TYPHIMURIUM, Strain/Indicator: TA1537, Metabolic Activation: RAT LIVER S-9, PHENOBARBITAL AND BETA-NAPHTHOFLAVONE, Method: PREINCUBATION", "result": "inactive; negative"}, {"measurement": "mutagenic call", "setting": "Test System: AMES SALMONELLA TYPHIMURIUM, Strain/Indicator: TA1537, Metabolic Activation: RAT, LIVER, S-9, AROCLOR 1254 (10%), Method: PREINCUBATION", "result": "inactive; negative"}, {"measurement": "mutagenic call", "setting": "Test System: AMES SALMONELLA TYPHIMURIUM, Strain/Indicator: TA1537, Metabolic Activation: RAT, LIVER, S-9, AROCLOR 1254, Method: STANDARD PLATE", "result": "inactive; negative"}, {"measurement": "mutagenic call", "setting": "Test System: AMES SALMONELLA TYPHIMURIUM, Strain/Indicator: TA1537, Metabolic Activation: RAT, LIVER, S-9, SODIUM PHENOBARBITAL, Method: STANDARD PLATE", "result": "inactive; negative"}, {"measurement": "mutagenic call", "setting": "Test System: AMES SALMONELLA TYPHIMURIUM, Strain/Indicator: TA1538, Metabolic Activation: NONE, Method: STANDARD PLATE", "result": "inactive; negative"}, {"measurement": "mutagenic call", "setting": "Test System: AMES SALMONELLA TYPHIMURIUM, Strain/Indicator: TA1538, Metabolic Activation: RAT, LIVER, S-9, AROCLOR 1254, Method: STANDARD PLATE", "result": "inactive; negative"}, {"measurement": "mutagenic call", "setting": "Test System: AMES SALMONELLA TYPHIMURIUM, Strain/Indicator: TA1538, Metabolic Activation: RAT, LIVER, S-9, SODIUM PHENOBARBITAL, Method: STANDARD PLATE", "result": "inactive; negative"}, {"measurement": "mutagenic call", "setting": "Test System: E.COLI, Strain/Indicator: WP2UVRA/PKM101, Metabolic Activation: NONE, Method: PREINCUBATION", "result": "inactive; negative"}, {"measurement": "mutagenic call", "setting": "Test System: E.COLI, Strain/Indicator: WP2UVRA/PKM101, Metabolic Activation: RAT LIVER S-9, PHENOBARBITAL AND BETA-NAPHTHOFLAVONE, Method: PREINCUBATION", "result": "inactive; negative"}]}, {"compound": "C=CCN(CC=C)c1cc(NC(C)=O)c(N=Nc2c(Br)cc([N+](=O)[O-])cc2[N+](=O)[O-])cc1OC", "values": [{"measurement": "mutagenic call", "setting": "[1]", "result": "inactive; negative"}, {"measurement": "mutagenic call", "setting": "[2]", "result": "active; positive"}, {"measurement": "mutagenic call", "setting": "Test System: AMES SALMONELLA TYPHIMURIUM, Strain/Indicator: YG1041, Metabolic Activation: NONE, Method: STANDARD PLATE", "result": "active; positive"}, {"measurement": "mutagenic call", "setting": "Test System: AMES SALMONELLA TYPHIMURIUM, Strain/Indicator: YG1041, Metabolic Activation: RAT, LIVER, S-9, AROCLOR 1254, Method: STANDARD PLATE", "result": "active; positive"}]}, {"compound": "Cc1c2ccccc2c(CCl)c2ccccc12", "values": [{"measurement": "mutagenic call", "setting": "[4]", "result": "active; positive"}]}, {"compound": "O=C1c2ccccc2-c2cccc3cccc1c23", "values": [{"measurement": "mutagenic call", "setting": "[1]", "result": "inactive; negative"}, {"measurement": "mutagenic call", "setting": "[2]", "result": "active; positive"}, {"measurement": "mutagenic call", "setting": "[3]", "result": "active; positive"}]}, {"compound": "O=[N+]([O-])c1ccc2c(c1)CCc1cc([N+](=O)[O-])ccc1-2", "values": [{"measurement": "mutagenic call", "setting": "Test System: AMES SALMONELLA TYPHIMURIUM, Strain/Indicator: TA98(1,8-DNP6), Metabolic Activation: NONE, Method: STANDARD PLATE", "result": "active; positive"}, {"measurement": "mutagenic call", "setting": "Test System: AMES SALMONELLA TYPHIMURIUM, Strain/Indicator: TA98(NR), Metabolic Activation: NONE, Method: STANDARD PLATE", "result": "active; positive"}, {"measurement": "mutagenic call", "setting": "[1]", "result": "active; positive"}]}]}
